Data on 15 compounds can be found in US20250215029A1 (Recludix Pharma, Inc., priority 2022, published 2025).

For one assay, the target named is T1, pY641-STAT6 in PBMC (Homo sapiens, UniProt P42226).
T1 construct: Cryopreserved Peripheral Blood Mononuclear Cells (PBMC) are from AllCells; host or cells: cryopreserved PBMC
T1 sequence (P42226 1-847): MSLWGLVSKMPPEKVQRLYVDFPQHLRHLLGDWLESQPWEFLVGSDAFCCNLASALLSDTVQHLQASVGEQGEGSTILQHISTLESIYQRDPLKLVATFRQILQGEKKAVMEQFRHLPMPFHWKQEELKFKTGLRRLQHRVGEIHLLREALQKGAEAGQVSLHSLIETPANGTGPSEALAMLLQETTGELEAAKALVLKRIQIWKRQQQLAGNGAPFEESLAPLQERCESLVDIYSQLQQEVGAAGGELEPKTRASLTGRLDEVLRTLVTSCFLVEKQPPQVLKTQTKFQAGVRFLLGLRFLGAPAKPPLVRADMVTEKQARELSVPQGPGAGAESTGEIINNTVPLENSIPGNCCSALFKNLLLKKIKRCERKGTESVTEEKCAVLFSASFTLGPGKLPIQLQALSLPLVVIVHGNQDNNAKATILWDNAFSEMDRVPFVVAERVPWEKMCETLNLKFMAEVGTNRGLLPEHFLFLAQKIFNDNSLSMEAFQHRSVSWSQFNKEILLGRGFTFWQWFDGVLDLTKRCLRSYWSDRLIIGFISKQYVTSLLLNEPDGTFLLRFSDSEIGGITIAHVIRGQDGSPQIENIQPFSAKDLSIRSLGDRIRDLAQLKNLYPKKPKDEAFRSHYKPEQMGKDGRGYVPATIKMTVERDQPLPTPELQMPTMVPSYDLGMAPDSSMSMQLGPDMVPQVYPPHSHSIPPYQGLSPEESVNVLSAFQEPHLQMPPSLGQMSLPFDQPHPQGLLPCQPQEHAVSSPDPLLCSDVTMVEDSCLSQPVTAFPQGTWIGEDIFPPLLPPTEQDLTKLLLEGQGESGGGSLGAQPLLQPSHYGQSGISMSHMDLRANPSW
Nature of the assay: MSD-pSTAT-PBMC Assay (pSTAT6, IL-4 stimulated). It counts as cell-based. The following applies: STAT6, PBMC, compound 3 hrs, then 1 ng/mL IL-4 for 10 min; Table 115. Put shortly:
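PBMC (human, cryopreserved, overnight recovery) + cpd 3 hrs → IL-6 10 ng/mL (STAT3) or IL-4 1 ng/mL (STAT6) ×10 min → lysis with protease/phosphatase inhibitors → MSD capture/phospho detection. IC50, variable slope, DMSO-normalized.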
Turning to `CCCOC(=O)[C@H](C)NP(=O)(Oc1ccccc1)[C@@H](F)c1ccc2sc(C(=O)N[C@H]3CCC[C@H]4CC[C@@H](C(=O)N5C(=O)N(c6cccnc6)C(=O)C56CC6)N4C3=O)cc2c1` (stereo partly drawn) [Compound 469, propyl (((R)-(2-(((3S,6S,9aS)-3-(5,7-dioxo-6-(pyridin-3-yl)-4,6-diazaspiro[2.4]heptane-4-carbonyl)-5-oxooctahydro-1H-pyrrolo[1,2-a]azepin-6-yl)carbamoyl)benzo [b]thiophen-5-yl)fluoromethyl) (phenoxy)phosphoryl)-L-alaninate], the IC50 fell in the range of 100 to 1000 nM. In the case of `C[C@H](NP(=O)(Oc1ccccc1)[C@@H](F)c1ccc2sc(C(=O)N[C@H]3CCC[C@H]4CC[C@@H](C(=O)N5C[C@@H](c6cccnc6)CC56CC6)N4C3=O)cc2c1)C(=O)OCc1cccnn1` (stereo partly drawn) [Compound 366, pyridazin-3-ylmethyl (((R)-fluoro(2-(((3S,6S,9aS)-5-oxo-3-((R)-6-(pyridin-3-yl)-4-azaspiro[2.4]heptane-4-carbonyl)octahydro-1H-pyrrolo[1,2-a]azepin-6-yl)carbamoyl)benzo [b]thiophen-5-yl)methyl)(phenoxy)phosphoryl)-L-alaninate], the IC50 lay within 100 to 1000 nM. With `CCCOC(=O)[C@H](C)NP(=O)(Oc1ccccc1)C(F)c1ccc2sc(C(=O)N[C@H]3CCCC[C@H]4CC[C@@H](C(=O)N5CC(c6cccnc6)CC56CC6)N4C3=O)cc2c1` (stereo partly drawn) [Compound 448, propyl ((fluoro(2-(((3S,6S,10aS)-5-oxo-3-(6-(pyridin-3-yl)-4-azaspiro[2.4]heptane-4-carbonyl)decahydropyrrolo[1,2-a]azocin-6-yl)carbamoyl)benzo [b]thiophen-5-yl)methyl)(phenoxy)phosphoryl)-L-alaninate], the IC50 was less than 100 nM.

For the compound `CCCOC(=O)[C@H](C)NP(=O)(Oc1ccccc1)[C@H](F)c1ccc2sc(C(=O)N[C@H]3CCCC[C@H]4CC[C@@H](C(=O)N5CC(c6cccnc6)CC56CC6)N4C3=O)cc2c1` (stereo in doubt) [Compound 458, propyl (((S)-fluoro(2-(((3S,6S,10aS)-5-oxo-3-((R)-6-(pyridin-3-yl)-4-azaspiro[2.4]heptane-4-carbonyl)decahydropyrrolo[1,2-a]azocin-6-yl)carbamoyl)benzo [b]thiophen-5-yl)methyl)(phenoxy)phosphoryl)-L-alaninate], the IC50 was less than 100 nM. `CCCOC(=O)[C@H](C)NP(=O)(Oc1ccccc1)[C@@H](F)c1ccc2sc(C(=O)N[C@H]3CCCC[C@H]4CC[C@@H](C(=O)N5C(=O)N(c6cncc(OC)c6)C(=O)C56CC6)N4C3=O)cc2c1` (stereo partly drawn) [Compound 331, propyl (((R)-fluoro(2-(((3S,6S,10aS)-3-(6-(5-methoxypyridin-3-yl)-5,7-dioxo-4,6-diazaspiro[2.4]heptane-4-carbonyl)-5-oxodecahydropyrrolo [1,2-a]azocin-6-yl)carbamoyl)benzo [b]thiophen-5-yl)methyl)(phenoxy)phosphoryl)-L-alaninate] returned an IC50 of 1000 to 3000 nM.

`CCCOC(=O)[C@H](C)NP(=O)(Oc1ccccc1)C(F)c1ccc2sc(C(=O)N[C@H]3CCC[C@H]4CC[C@@H](C(=O)N5CC(c6cccnc6)CC56CC6)N4C3=O)cc2c1` (stereo partly drawn) [Compound 456, propyl ((fluoro(2-(((3S,6S,9aS)-5-oxo-3-(6-(pyridin-3-yl)-4-azaspiro[2.4]heptane-4-carbonyl)octahydro-1H-pyrrolo[1,2-a]azepin-6-yl)carbamoyl)benzo [b]thiophen-5-yl)methyl)(phenoxy)phosphoryl)-L-alaninate] returned an IC50 of less than 100 nM.

On to `CCCOC(=O)[C@H](C)NP(=O)(Oc1ccccc1)C(F)c1ccc2sc(C(=O)N[C@H]3CCCC[C@H]4CC[C@@H](C(=O)N5C(=O)N(c6cc(=O)n(C)cc6F)C(=O)C56CC6)N4C3=O)cc2c1` (stereo partly drawn) [Compound 976, propyl ((fluoro(2-(((3S,6S,10aS)-3-(6-(5-fluoro-1-methyl-2-oxo-1,2-dihydropyridin-4-yl)-5,7-dioxo-4,6-diazaspiro [2.4]heptane-4-carbonyl)-5-oxodecahydropyrrolo [1,2-a]azocin-6-yl)carbamoyl)benzo [b]thiophen-5-yl)methyl)(phenoxy)phosphoryl)-L-alaninate], for which the IC50 was more than 3000 nM. On the same count and under the same terms, next, `CCCOC(=O)[C@H](C)NP(=O)(Oc1ccccc1)[C@H](F)c1ccc2sc(C(=O)N[C@H]3CCC[C@H]4CC[C@@H](C(=O)N5C[C@@H](c6cccnc6)[C@H](C#N)C56CC6)N4C3=O)cc2c1` (single isomer, unassigned) [Compound 355]: less than 100 nM. Same read-out and setting: next, `C[C@H](NP(=O)(Oc1ccccc1)[C@@H](F)c1ccc2sc(C(=O)N[C@H]3CCCC[C@H]4CC[C@@H](C(=O)N5C[C@@H](c6cccnc6)CC56CC6)N4C3=O)cc2c1)C(=O)OCc1ccccc1` (stereo partly drawn) [Compound 472, benzyl (((R)-fluoro(2-(((3S,6S,10aS)-5-oxo-3-((R)-6-(pyridin-3-yl)-4-azaspiro[2.4]heptane-4-carbonyl)decahydropyrrolo[1,2-a]azocin-6-yl)carbamoyl)benzo [b]thiophen-5-yl)methyl)(phenoxy)phosphoryl)-L-alaninate]: less than 100 nM. As to `C[C@H](NP(=O)(Oc1ccccc1)[C@@H](F)c1ccc2sc(C(=O)N[C@H]3CCC[C@H]4CC[C@@H](C(=O)N5C[C@@H](c6cccnc6)CC56CC6)N4C3=O)cc2c1)C(=O)OCc1nnnn1C` (stereo partly drawn) [Compound 356, (1-methyl-1H-tetrazol-5-yl)methyl (((R)-fluoro(2-(((3S,6S,9aS)-5-oxo-3-((R)-6-(pyridin-3-yl)-4-azaspiro[2.4]heptane-4-carbonyl)octahydro-1H-pyrrolo[1,2-a]azepin-6-yl)carbamoyl)benzo [b]thiophen-5-yl)methyl)(phenoxy)phosphoryl)-L-alaninate], the IC50 fell in the range of 100 to 1000 nM. On to `CCCCOC(=O)[C@H](C)NP(=O)(Cc1ccc2ccc(C(=O)N[C@H]3CCCC[C@H]4CC[C@@H](C(=O)N5CC(c6ccccc6)CC56CC6)N4C3=O)cc2c1)Oc1cccc2ccccc12` (stereo partly drawn) [Compound 416, butyl ((naphthalen-1-yloxy)((7-(((3S,6S,10aS)-5-oxo-3-(6-phenyl-4-azaspiro[2.4]heptane-4-carbonyl)decahydropyrrolo[1,2-a]azocin-6-yl)carbamoyl)naphthalen-2-yl)methyl)phosphoryl)-L-alaninate], for which the IC50 is more than 3000 nM. The same measure, in the same setting: next, `CCCOC(=O)[C@H](C)NP(=O)(Oc1ccccc1)[C@@H](F)c1ccc2sc(C(=O)N[C@H]3CC[C@@H](C)C[C@H]4CC[C@@H](C(=O)N5C[C@@H](c6cccnc6)CC56CC6)N4C3=O)cc2c1` (stereo partly drawn) [Compound 470, propyl (((R)-fluoro(2-(((3S,6S,9R,10aR)-9-methyl-5-oxo-3-((R)-6-(pyridin-3-yl)-4-azaspiro[2.4]heptane-4-carbonyl)decahydropyrrolo[1,2-a]azocin-6-yl)carbamoyl)benzo [b]thiophen-5-yl)methyl)(phenoxy)phosphoryl)-L-alaninate]: less than 100 nM; `CC(C)OC(=O)[C@H](C)NP(=O)(Cc1ccc2ccc(C(=O)N[C@H]3CCCC[C@H]4CC[C@@H](C(=O)N5C[C@@H](c6cc[nH]c(=O)c6)CC56CC6)N4C3=O)cc2c1)Oc1ccccc1` (stereo partly drawn) [Compound 424, isopropyl (((7-(((3S,6S,10aS)-5-oxo-3-((R)-6-(2-oxo-1,2-dihydropyridin-4-yl)-4-azaspiro[2.4]heptane-4-carbonyl)decahydropyrrolo[1,2-a]azocin-6-yl)carbamoyl)naphthalen-2-yl)methyl)(phenoxy)phosphoryl)-L-alaninate]: 100 to 1000 nM; `CC(C)COC(=O)[C@H](C)NP(=O)(Oc1ccccc1)[C@@H](F)c1ccc2sc(C(=O)N[C@H]3CCCC[C@H]4CC[C@@H](C(=O)N5C[C@@H](c6cccnc6)CC56CC6)N4C3=O)cc2c1` (stereo partly drawn) [Compound 417, isobutyl (((R)-fluoro(2-(((3S,6S,10aS)-5-oxo-3-((R)-6-(pyridin-3-yl)-4-azaspiro[2.4]heptane-4-carbonyl)decahydropyrrolo[1,2-a]azocin-6-yl)carbamoyl)benzo [b]thiophen-5-yl)methyl)(phenoxy)phosphoryl)-L-alaninate]: less than 100 nM.

The same assay, now with this note: read-out: STAT6; PBMC, compound 3 hrs, then 1 ng/mL IL-4 for 10 min; Table 115.
Consider `CCCOC(=O)[C@H](C)NP(=O)(Oc1ccccc1)[C@@H](F)c1ccc2sc(C(=O)N[C@H]3CCC[C@H]4CC[C@@H](C(=O)N5C[C@H](c6cccnc6)[C@@H](C#N)C56CC6)N4C3=O)cc2c1` (single isomer, unassigned) [Compound 363], for which the IC50 is less than 100 nM.
